Literature values, collected in paper PMC3005221 (Biochemistry, 2010).

Molecular target: HDAC6 BUZ domain
Details: read-out: KD for HDAC6 BUZ domain (reported); full-length ubiquitin

For ubiquitin, the Kd is listed as 60 nM.
